According to US20220362165A1, “TETRABENAZINE TRANSDERMAL DELIVERY DEVICE” (SHINKEI THERAPEUTICS LLC, priority 2019, published 2022):

Assay: clinical
Details: male, human, in vivo
Protocol: This was an open-label, randomized, two-treatment, two-period, two-sequence, crossover study under fasted conditions comparing the test and reference products. The study was conducted with 16 healthy, non-tobacco-, non-nicotine-using, adult male subjects. In one period of the study, one (1) TBZ patch, 8 mg/96 hr was applied to the subject's upper outer left arm and kept in place for 96 hours following an overnight fast of at least 10 hours. In the other study period, 1×12.5 mg Tetrabenazine Tablet (Lupin) was administered every 8 hours from Day 1 through Day 4 for a total daily dose of 37.5 mg and a total dose of 150 mg for the 12 doses over the 4 days. […]
Blood samples were collected pre-dose and at intervals over 120 hours after dosing (0-hour) with the study drug in each study period. Samples were analyzed by the bioanalytical laboratory for those subjects who were dosed with at least one of the study products (Treatment A or B).
The plasma concentrations of TBZ (RR and SS isomers) and its active metabolites (RRR, SSS, SRR and RSS) were measured by a fully validated analytical procedure. […]
The plasma concentrations of TBZ (RR and SS isomers) and its HTBZ metabolites (RRR, SSS, SRR and RSS) were measured by a fully validated analytical procedure for those subjects who were dosed with at least one of the study products (Treatment A or B).

- half-life: ~8.5 h
Structure (SMILES): COc1cc2c(cc1OC)[C@H]1CC(=O)[C@H](CC(C)C)CN1CC2 [R,R-tetrabenazine, (3R,11bR)-1,3,4,6,7,11b-Hexahydro-9,10-dimethoxy-3-(2-methylpropyl)-2H-benzo[a]quinolizin-2-one]
